Results reported in patent US9073905B2, “Rock inhibitors” (Amakem NV, priority 2011, dated 2015).
pEC50, pIC50: −log10 of the molar value. Entries after “also recorded” stand apart in the source; their conditions may differ.

Tests used:
ROCK2 = ROCK2 (Homo sapiens, UniProt O75116); assay: Kinase inhibition (ROCKI & ROCKII), radiometric 33P-ATP biochemical assay; details: for inhibitory activity against ROCK (in words): summary of point C1.1
Procedure: On-target activity against ROCK was measured in a biochemical assay, using the following reagents: Base Reaction buffer; 20 mM Hepes (pH 7.5), 10 mM MgCl2, 1 mM EGTA, 0.02% Brij35, 0.02 mg/ml BSA, 0.1 mM Na3VO4, 2 mM DTT, 1% DMSO. Required cofactors are added individually to each kinase reaction. The reaction procedure first involved the preparation of a peptide substrate in a freshly prepared reaction buffer. Required cofactors were then added to the substrate solution. ROCK (1 nM final concentration) was then delivered to the substrate solution. After gentle mix, DMSO solutions of the test compounds were added to the enzyme. Substrate mix ^33P-ATP (specific activity 0.01 μCi/μl final) was then delivered into the reaction mixture to initiate the reaction. The kinase reaction was incubated for 120 min. at room temperature. Reactions were then spotted onto P81 ion exchange paper (Whatman #3698-915). Filters were washed extensively in 0.1% Phosphoric acid. A radiometric count was then performed and IC50 values were subsequently determined.
The IC50 values obtained (in accordance with the protocol set forth above) are represented as follows: “+++” means IC50 below 0.1 μM, “++” means IC50 between 0.1 μM and 1 μM; “+” means IC50 between 1 and 10 μM and “ND” means “not determined yet”.

[1] = tested on: MLC-T18/S19 phosphorylation; assay: Myosin light chain phosphorylation assay (ELISA) in A7r5 cells; format: cell-based, Rat; details: for functional activity in the MLC phosphorylation assay (in words): FIG. 1; for pIC50 / pEC50: Rattus norvegicus; for pIC50: A7R5, comparison table, MLC phosphorylation, read-out: IC50 MLC-PP; for pEC50: MLC-T18/S19 phosphorylation, A7r5 cells, serum-free medium
Procedure: Rat smooth muscle cell line A7r5 is used. The endogenous expression of ROCK esults in a constitutive phosphorylation of the regulatory myosin light chain at T18/S19. A7r5 cells were plated in DMEM supplemented with 10% FCS in multiwall cell culture plates. After serum starvation overnight, cells were incubated with compounds in serum-free medium.
Quantification of MLC-T18/S19 phosphorylation is assesses in 96 well-plates via ELISA using a phspho-MLC-T18/S19 specific antibody and a secondary detection antibody. Raw data were converted into percent substrate phosphorylation relative to high controls, which were set to 100%.
EC50 values were determined using GraphPad Prism 5.01 software using a nonlinear regression curve fit with variable hill slope.
The EC50 values obtained (in accordance with the protocols set forth above) are represented as follows: “+++” means EC50 below 0.3 μM, “++” means EC50 between 0.3 μM and 1 μM; “+” means EC50 between 1 and 10 μM and “−” means EC50>10 μM.

[2] = Stability assay in human plasma; format: in vitro ADME; details: 1 μM compound, LC-MS/MS, read-out: t½ human plasma
Procedure: (§1) Compounds are incubated at a concentration of 1 μM in rat (mice or rabbit) or human plasma. Samples are taken at fixed time points and the remnant of compound is determined by LC-MS/MS after protein precipitation. Half life is expressed in minutes.

[3] = Stability in plasma, species not stated; format: in vitro ADME; details: for half-life at 1 μM: comparison table, plasma species not given, read-out: t½ Plasma; for half life in plasma (in words): point C.2.1
Procedure: as §1

[4] = tested on: normotensive New Zeland White rabbits; assay: Intraocular pressure (IOP) lowering in normotensive rabbits; format: in vivo, rabbit
Procedure: A detailed example of the IOP lowering effects of the compounds of the invention is here provided for compound 14. Compound 14 was here formulated as a 0.3% solution of pH=6.91 in Water/PEG 400 1:1.
IOP of to normotensive New Zeland White rabbits (n=3) was measured using a Tonolab tonometer, at 9h00, prior to compound administration.
At 9h30, one drop (50 μl) of the formulated solution was administered to rabbits, in the right eye (OD); while one drop (50 μl) of the vehicle solution was administered to the left eye (OS). IOP was then recorded in 1 h intervals until 17 h.

[5] = Stability towards drug metabolizing enzymes in lung S9; format: in vitro ADME, human; details: for half-life at 1 μM: human
Procedure: A 1 μM solution of the ROCK inhibitors is incubated with a reaction mixture containing lung S9 (from smokers) as well as the cofactors NADPH, UDPGA, PAPS and GSH. Samples are collected at 0, 15, 30 and 60 minutes post incubation. Negative control samples incubated with ROCK inhibitors and S9 fraction in the absence of cofactors are run in parallel. By using LC-MS/MS analysis, the percent of ROCK compounds remaining at each time point, the metabolic half-life of the ROCK compounds (expressed in minutes) and the metabolic half-life of the control compounds are determined.

[6] = Stability assay in rabbit aqueous humor; format: in vitro ADME; details: for half-life at 1 μM: rabbit, aqueous humor, read-out: t½ AH
Procedure: Compounds are incubated at a concentration of 1 μM in rabbit aqueous humor (AH). Samples are taken at fixed time points and the remnant of compound is determined by LC-MS/MS after protein precipitation. Half life is expressed in minutes.

[7] = Stability assay in mice plasma; format: in vitro ADME; details: mouse, 1 μM compound, LC-MS/MS, read-out: t½ mice plasma
Procedure: as §1

[8] = ROCK 1 nM, 120 min at room temperature
[9] = 1 μM, lung S9 from smokers, cofactors NADPH, UDPGA, PAPS, GSH
[10] = lung S9 (from smokers), text summary of point C.2.2, read-out: half-life in lung tissue

ROCK2, sequence (O75116 whole entry, species assumed): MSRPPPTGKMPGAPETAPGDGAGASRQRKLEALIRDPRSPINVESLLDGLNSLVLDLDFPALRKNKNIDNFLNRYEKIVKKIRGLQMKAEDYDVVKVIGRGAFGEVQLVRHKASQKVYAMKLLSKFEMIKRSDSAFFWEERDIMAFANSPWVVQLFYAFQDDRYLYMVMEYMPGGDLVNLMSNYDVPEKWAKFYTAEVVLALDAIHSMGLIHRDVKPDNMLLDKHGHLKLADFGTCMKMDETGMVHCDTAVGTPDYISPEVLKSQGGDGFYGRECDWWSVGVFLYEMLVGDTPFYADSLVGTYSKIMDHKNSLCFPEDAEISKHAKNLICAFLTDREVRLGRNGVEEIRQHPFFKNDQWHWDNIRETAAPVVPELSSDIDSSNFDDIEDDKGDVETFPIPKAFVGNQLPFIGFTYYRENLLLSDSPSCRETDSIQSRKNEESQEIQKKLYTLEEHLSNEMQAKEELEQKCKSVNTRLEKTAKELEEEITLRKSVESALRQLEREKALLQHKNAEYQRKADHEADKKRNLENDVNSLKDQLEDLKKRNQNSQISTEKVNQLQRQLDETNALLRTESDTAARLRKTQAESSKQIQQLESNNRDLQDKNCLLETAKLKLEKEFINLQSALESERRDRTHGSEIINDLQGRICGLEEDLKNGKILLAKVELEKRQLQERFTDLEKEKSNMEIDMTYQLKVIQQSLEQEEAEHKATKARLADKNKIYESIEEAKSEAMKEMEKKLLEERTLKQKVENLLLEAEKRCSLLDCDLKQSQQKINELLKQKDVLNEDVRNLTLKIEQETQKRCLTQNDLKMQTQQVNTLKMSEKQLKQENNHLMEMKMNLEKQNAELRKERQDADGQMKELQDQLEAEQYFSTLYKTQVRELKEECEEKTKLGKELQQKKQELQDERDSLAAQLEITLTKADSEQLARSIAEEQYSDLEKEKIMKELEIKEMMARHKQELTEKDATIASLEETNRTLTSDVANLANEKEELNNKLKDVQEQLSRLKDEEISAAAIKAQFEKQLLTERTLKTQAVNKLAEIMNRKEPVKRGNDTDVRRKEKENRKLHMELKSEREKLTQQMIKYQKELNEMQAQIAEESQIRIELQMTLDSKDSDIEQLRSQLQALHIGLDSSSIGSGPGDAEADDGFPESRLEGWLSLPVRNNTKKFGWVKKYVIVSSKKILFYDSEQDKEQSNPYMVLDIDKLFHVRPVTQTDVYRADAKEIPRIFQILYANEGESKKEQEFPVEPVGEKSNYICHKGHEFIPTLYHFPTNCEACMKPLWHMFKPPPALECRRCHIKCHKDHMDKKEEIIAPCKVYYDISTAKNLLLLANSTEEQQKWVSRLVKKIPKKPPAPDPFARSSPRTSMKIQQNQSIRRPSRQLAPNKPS

With `O=C(OCC1CCCO1)c1cccc(CN2CCCC(Nc3ccc4[nH]ncc4c3)C2)c1` (centres unmarked) [Compound 14] the pIC50 (ROCK2; [8]) was greater than 7.00, the pIC50 (ROCK2; comparison table) was 8.47 and the “inhibitory activity against ROCK (in words)” value (“inhibitory activity” below) (ROCK2) was “strong inhibitory activity”. For the same compound, the “functional activity in the MLC phosphorylation assay (in words)” value (shortened to “functional activity”) [1] was “functionally active compound; also recorded: display functional activity”, the pIC50 [1] was 6.62 and the pEC50 [1] was greater than 6.52. The half-life at 1 μM [2] was less than 5 min, the half-life at 1 μM [3] was less than 5 min and the “half life in plasma (in words)” value [3] was “short half life”. The “time after administration until which the IOP decrease is statistically significant (P≦0.05)” value ([4]; 0.3% solution, one drop at 9h30, until the 14 h time point) was 4.30 h, the “IOP decrease following administration (in words)” value ([4]; 0.3% solution, one drop, visible until 17 h) was “pronounced IOP decrease” and the “Average IOP OD (mmHg)” value ([4]; 9 h, right eye (OD), prior to compound administration (baseline), n=3) was 9.89 mmHg. The “Average IOP OD (mmHg)” value ([4]; 10 h, one drop (50 μl) 0.3% solution in Water/PEG 400 1:1 at 9h30, right eye (OD)) was 7.67 mmHg, the “Average IOP OD (mmHg)” value ([4]; 11 h, one drop (50 μl) 0.3% solution at 9h30, right eye (OD)) was 6.44 mmHg and the “Average IOP OD (mmHg)” value ([4]; 12 h, one drop (50 μl) 0.3% solution at 9h30, right eye (OD)) was 6.22 mmHg. For the same compound, the “Average IOP OD (mmHg)” value ([4]; 13 h, one drop (50 μl) 0.3% solution at 9h30, right eye (OD)) was 7.00 mmHg, the “Average IOP OD (mmHg)” value ([4]; 14 h, one drop (50 μl) 0.3% solution at 9h30, right eye (OD)) was 6.44 mmHg and the “Average IOP OD (mmHg)” value ([4]; 15 h, one drop (50 μl) 0.3% solution at 9h30, right eye (OD)) was 7.67 mmHg. The “Average IOP OD (mmHg)” value ([4]; 16 h, one drop (50 μl) 0.3% solution at 9h30, right eye (OD)) was 7.89 mmHg, the “Average IOP OD (mmHg)” value ([4]; 17 h, one drop (50 μl) 0.3% solution at 9h30, right eye (OD)) was 8.11 mmHg and the half-life at 1 μM ([5]; lung S9 (from smokers), comparison table, read-out: t½ lung S9) was 9 min. For the same compound, the half-life at 1 μM ([6]; 1 μM in rabbit aqueous humor) was greater than 120 min, the half-life at 1 μM ([6]; comparison table) was greater than 120 min and the “half-life in aqueous humor compared with plasma (in words)” value ([6]; text summary of point C.2.3) was “significantly longer half-life in aqueous humor than in plasma”.

`O=C(NCCSC1CCOC1=O)c1cccc(CN2CCCC(Nc3cccc4cnccc34)C2)c1` (centres unmarked) [Compound 26] showed a half-life at 1 μM [7] of 2.5 min, a pIC50 (ROCK2; [8]) greater than 7.00 and a pIC50 (ROCK2; comparison table) of 8.72. The “inhibitory activity” value (ROCK2) was “strong inhibitory activity”, the “functional activity” value [1] was “display functional activity” and the pIC50 [1] was 6.40. The pEC50 [1] was 6.00 to 6.52, the half-life at 1 μM [2] was 5 min and the half-life at 1 μM [3] was less than 5 min. For the same compound, the “half life in plasma (in words)” value [3] was “short half life”, the “t½ human lung S9” value [5, 9] was greater than 240 min and the “t½ lung S9” value ([5]; comparison table) was greater than 240 min. For the same compound, the half-life at 1 μM [5, 10] was greater than 240 min.

In the case of `O=C(NCCSC1CCOC1=O)c1cccc(CN2CCCC(Nc3ccc4[nH]ncc4c3)C2)c1` (centres unmarked) [Compound 28], the half-life at 1 μM [7] was 2.2 min, the pIC50 (ROCK2; [8]) was greater than 7.00 and the “inhibitory activity” value (ROCK2) was “strong inhibitory activity”. The “functional activity” value [1] was “display functional activity”, the pEC50 [1] was 6.00 to 6.52 and the half-life at 1 μM [2] was less than 5 min. The “half life in plasma (in words)” value [3] was “short half life”, the “t½ human lung S9” value [5, 9] was greater than 240 min and the half-life at 1 μM [5, 10] was greater than 240 min.

Work on `COC(=O)c1cccc(NC(=O)c2cccc(CN3CCC(Nc4cccc5cnccc45)C3)c2)c1` (centres unmarked) [Compound 32] yielded a pIC50 (ROCK2; [8]) greater than 7.00, a pIC50 (ROCK2; comparison table) of 7.60 and a pIC50 [1] of 6.80. The pEC50 [1] was greater than 6.52, the half-life at 1 μM [2] was 25 min and the half-life at 1 μM [3] was 22 min. For the same compound, the “t½ lung S9” value ([5]; comparison table) was greater than 240 min, the half-life at 1 μM ([5]; 1 μM, lung S9 from smokers, cofactors NADPH, UDPGA, PAPS, GSH, read-out: t½ human lung S9) was greater than 240 min and the half-life at 1 μM ([6]; 1 μM in rabbit aqueous humor) was greater than 120 min. For the same compound, the half-life at 1 μM ([6]; comparison table) was 98 min.
